Like-named read-outs stand apart in the source and are kept apart here.
Key:
[1] = Transferability into brain and clearance (radioactive accumulation in brain after intravenous injection); conditions: rats
Procedure: Using [^123I]-2-(4′-iodophenyl)-6-methoxyimidazo[1,2-a]pyridine and [^123I]-2-(4′-fluorophenyl)-6-iodoimidazo[1,2-a]pyridine, a time course change of radioactive accumulation in brain of male Wistar rats (7-week old) was measured.
The rats were sacrificed by bleeding from abdominal artery, and brains were removed and subjected to measurement of mass of brains (hereinafter referred to as A in this Example) and further subjected to measurement of radioactivity with a single channel analyzer (detector type: SP-20 manufactured by OHYO KOKEN KOGYO Co., Ltd.) 2, 5, 30 and 60 minutes after the injection. Also, radioactivity (hereinafter referred to as B in this Example) of the rest of the whole body was measured in the same manner as above.
The same procedures as above was conducted and subjected to the same procedures as above to calculate radioactive accumulation per unit weight of a brain (% ID/g) at the respective time points were calculated.
Three animals were used for Example 15, Example 16 and Comparative Example 2 at the respective time points.

[2] = Partition coefficient based on the octanol extraction method (logPoctanol); conditions: octanol / 10 mmol/L phosphate buffer (pH 7.4)
Procedure: 10 μL each of the prepared sample solution was respectively added to 2 mL of octanol, further, 2 mL of 10 mmol/L phosphate buffer (pH 7.4) was added, and stirred for 30 seconds. After the mixture was centrifuged with a low-speed centrifuge (2000 rpm×60 min.), the octanol layer and the water layer were sampled each in an amount of 1 mL, and subjected to measurement of radioactivity count with an autowell gamma system (Type: ARC-301B, manufactured by Aloka). Using the obtained radioactivity count, logPoctanol was calculated in accordance with the equation (2).

[3] = tested on: intracerebral amyloid (aggregated Aβ1-42); assay: Confirmation of imaging of amyloid in brain (autoradiogram of brain slice, amyloid injected into amygdaloid nucleus); format: in vivo, male Wistar rat; conditions: rat, tail vein injection, brain removed 60 minutes after injection
Procedure: (§1) The following experiment was carried out in order to examine whether amyloid in brain can be imaged by the compound of the present invention.
(§2) (1) Aβ1-42 (Wako) was dissolved in phosphate buffer (pH 7.4) and shaken at 37° C. for 72 hours, to obtain a 1 mg/mL suspension of aggregated Aβ (hereinafter referred to as amyloid suspension in this Example).
(§3) (2) Under thiopental anesthesia, […] of the amyloid suspension was injected into an amygdaloid nucleus on one side of a male Wistar rat (7-week old). As a control, 2.5 μL of a phosphate buffered physiological saline solution (pH 7.4) was injected into an amygdaloid nucleus on the other side of the rat. The rats were examined 1 day after the injection of the amyloid suspension and the phosphate buffered physiological saline solution (pH 7.4).
(§4) This sample solution was injected under thiopental anesthesia into the rat through the tail vein (dosage: 0.5 mL, dosed radioactivity: 16 MBq equivalent).
(§5) (4) Brain was removed 60 minutes after the injection to prepare a brain slice of 10 μm in thickness with a microtome (type: CM3050S, manufactured by LEICA). The brain slice was exposed to an imaging plate for 20 hours, and then image analysis was carried out by use of a Bio-imaging Analyzer (type: BAS-2500; manufactured by FUJIFILM Corporation).

[4] = target: T1, intracerebral amyloid (aggregated Aβ1-42) (Homo sapiens, UniProt P05067); assay: as above; format: in vivo, male Wistar rat; conditions: rat, tail vein injection, brain removed 60 minutes after injection
T1 construct: Aβ1-42 (Wako) was dissolved in phosphate buffer (pH 7.4); purchased Wako
T1 sequence (P05067 672-713): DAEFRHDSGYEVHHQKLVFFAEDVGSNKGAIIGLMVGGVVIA
Procedure: as §1, §2, §3, §4, §5

[5] = SD rat; for radioactive distribution per unit weight, Adrenal gland, Average / radioactive distribution per unit weight, Blood, Average / radioactive distribution per unit weight, Bone, Average / radioactive distribution per unit weight, Brain, Average / radioactive distribution per unit weight, Heart, Average / radioactive distribution per unit weight, Kidney, Average / radioactive distribution per unit weight, Large intestine, Average / radioactive distribution per unit weight, Liver, Average / radioactive distribution per unit weight, Lung, Average / radioactive distribution per unit weight, Marrow, Average / radioactive distribution per unit weight, Muscle, Average / radioactive distribution per unit weight, Pancreas, Average / radioactive distribution per unit weight, Small intestine, Average / radioactive distribution per unit weight, Spleen, Average / radioactive distribution per unit weight, Stomach, Average: tail vein
Procedure: 0.2 mL each of the prepared sample solution was administered under non-thiopental anesthesia into the tail vein of the above rat. The rats were sacrificed by bleeding from abdominal artery, and each organ shown in Table 4 was removed 5, 30, 60 and 180 minutes after the administration. Each removed organ was subjected to measurement of mass and radioactivity with the same method as in Example 15. Also, radioactivity of the whole body of the rat after removal of the organs (hereinafter, refers to rest of the whole body) was measured. Using these measurement results, radioactive distribution per unit weight of each organ (% ID/g) at the respective time points was calculated in accordance with the following formula (4).
Three animals were used for the experiment at the respective time points.
R^T: Radioactivity of target organ (cpm) RS: Sum of radioactivity of all the organs (cpm)
R^R: Radioactivity of the rest of the whole body (cpm)
M^T: Mass of target organ (g)

For `CN(C)c1ccc(-c2cn3cc([123I])ccc3n2)cc1` [[^123I]-IMPY, reference compound], the “Radioactive accumulation per unit weight in brain” value ([1]; after 2 min.) was 1.19 % ID/g, the “Radioactive accumulation per unit weight in brain” value ([1]; after 5 min.) was 0.97 % ID/g and the “Radioactive accumulation per unit weight in brain” value ([1]; after 30 min.) was 0.23 % ID/g. For the same compound, the “Radioactive accumulation per unit weight in brain” value ([1]; after 60 min.) was 0.09 % ID/g and the logPoctanol value [2] was 1.9.

In the case of `COc1ccc2nc(-c3ccc([123I])cc3)cn2c1` [[^123I]-2-(4′-iodophenyl)-6-methoxyimidazo[1,2-a]pyridine], the “accumulation of radioactivity in amygdaloid nucleus on the side to which the physiological saline solution was injected” value [3] was “no significant accumulation of radioactivity”, the “accumulation of radioactivity in amygdaloid nucleus on the side to which the amyloid suspension was injected” value [4] was “marked accumulation of radioactivity” and the “ratio (% ID/g at 5 minutes after the administration)/(% ID/g at 180 minutes after the administration), bone” value ([5]; bone) was 3. For the same compound, the “ratio (% ID/g at 5 minutes after the administration)/(% ID/g at 180 minutes after the administration), brain” value ([5]; brain) was 43, the “excretion / clearance to the outside of the body” value ([5]; distribution moved from small intestine to large intestine) was “biliary-excreted rapidly after the administration” and the “ratio (% ID/g at 5 minutes after the administration)/(% ID/g at 180 minutes after the administration), heart” value ([5]; heart) was 12. The “ratio (% ID/g at 5 minutes after the administration)/(% ID/g at 180 minutes after the administration), lung” value ([5]; lung) was 7, the “ratio (% ID/g at 5 minutes after the administration)/(% ID/g at 180 minutes after the administration), pancreas” value ([5]; pancreas) was 8 and the “radioactive distribution per unit weight, Adrenal gland, Average” value ([5]; 5 min. after administration) was 5.163 % ID/g. For the same compound, the “radioactive distribution per unit weight, Blood, Average” value ([5]; 5 min. after administration) was 0.290 % ID/g, the “radioactive distribution per unit weight, Bone, Average” value ([5]; 5 min. after administration) was 0.223 % ID/g and the “radioactive distribution per unit weight, Brain, Average” value ([5]; 5 min. after administration) was 1.175 % ID/g. The “radioactive distribution per unit weight, Heart, Average” value ([5]; 5 min. after administration) was 0.752 % ID/g, the “radioactive distribution per unit weight, Kidney, Average” value ([5]; 5 min. after administration) was 1.434 % ID/g and the “radioactive distribution per unit weight, Large intestine, Average” value ([5]; 5 min. after administration) was 0.122 % ID/g. For the same compound, the “radioactive distribution per unit weight, Liver, Average” value ([5]; 5 min. after administration) was 1.857 % ID/g, the “radioactive distribution per unit weight, Lung, Average” value ([5]; 5 min. after administration) was 1.109 % ID/g and the “radioactive distribution per unit weight, Marrow, Average” value ([5]; 5 min. after administration) was 0.937 % ID/g. For the same compound, the “radioactive distribution per unit weight, Muscle, Average” value ([5]; 5 min. after administration) was 0.344 % ID/g, the “radioactive distribution per unit weight, Pancreas, Average” value ([5]; 5 min. after administration) was 0.709 % ID/g and the “radioactive distribution per unit weight, Small intestine, Average” value ([5]; 5 min. after administration) was 0.729 % ID/g. For the same compound, the “radioactive distribution per unit weight, Spleen, Average” value ([5]; 5 min. after administration) was 0.460 % ID/g, the “radioactive distribution per unit weight, Stomach, Average” value ([5]; 5 min. after administration) was 0.203 % ID/g and the “radioactive distribution per unit weight, Adrenal gland, Average” value ([5]; 30 min. after administration) was 2.364 % ID/g. For the same compound, the “radioactive distribution per unit weight, Blood, Average” value ([5]; 30 min. after administration) was 0.240 % ID/g, the “radioactive distribution per unit weight, Bone, Average” value ([5]; 30 min. after administration) was 0.136 % ID/g and the “radioactive distribution per unit weight, Brain, Average” value ([5]; 30 min. after administration) was 0.220 % ID/g. The “radioactive distribution per unit weight, Heart, Average” value ([5]; 30 min. after administration) was 0.220 % ID/g, the “radioactive distribution per unit weight, Kidney, Average” value ([5]; 30 min. after administration) was 2.102 % ID/g and the “radioactive distribution per unit weight, Large intestine, Average” value ([5]; 30 min. after administration) was 0.096 % ID/g. For the same compound, the “radioactive distribution per unit weight, Liver, Average” value ([5]; 30 min. after administration) was 1.197 % ID/g, the “radioactive distribution per unit weight, Lung, Average” value ([5]; 30 min. after administration) was 0.410 % ID/g and the “radioactive distribution per unit weight, Marrow, Average” value ([5]; 30 min. after administration) was 0.285 % ID/g. The “radioactive distribution per unit weight, Muscle, Average” value ([5]; 30 min. after administration) was 0.092 % ID/g, the “radioactive distribution per unit weight, Pancreas, Average” value ([5]; 30 min. after administration) was 0.338 % ID/g and the “radioactive distribution per unit weight, Small intestine, Average” value ([5]; 30 min. after administration) was 3.964 % ID/g. The “radioactive distribution per unit weight, Spleen, Average” value ([5]; 30 min. after administration) was 0.207 % ID/g, the “radioactive distribution per unit weight, Stomach, Average” value ([5]; 30 min. after administration) was 1.081 % ID/g and the “radioactive distribution per unit weight, Adrenal gland, Average” value ([5]; 60 min. after administration) was 1.775 % ID/g. For the same compound, the “radioactive distribution per unit weight, Blood, Average” value ([5]; 60 min. after administration) was 0.203 % ID/g, the “radioactive distribution per unit weight, Bone, Average” value ([5]; 60 min. after administration) was 0.102 % ID/g and the “radioactive distribution per unit weight, Brain, Average” value ([5]; 60 min. after administration) was 0.111 % ID/g. The “radioactive distribution per unit weight, Heart, Average” value ([5]; 60 min. after administration) was 0.134 % ID/g, the “radioactive distribution per unit weight, Kidney, Average” value ([5]; 60 min. after administration) was 1.630 % ID/g and the “radioactive distribution per unit weight, Large intestine, Average” value ([5]; 60 min. after administration) was 0.099 % ID/g. For the same compound, the “radioactive distribution per unit weight, Liver, Average” value ([5]; 60 min. after administration) was 0.836 % ID/g, the “radioactive distribution per unit weight, Lung, Average” value ([5]; 60 min. after administration) was 0.243 % ID/g and the “radioactive distribution per unit weight, Marrow, Average” value ([5]; 60 min. after administration) was 0.000 % ID/g. The “radioactive distribution per unit weight, Muscle, Average” value ([5]; 60 min. after administration) was 0.062 % ID/g, the “radioactive distribution per unit weight, Pancreas, Average” value ([5]; 60 min. after administration) was 0.247 % ID/g and the “radioactive distribution per unit weight, Small intestine, Average” value ([5]; 60 min. after administration) was 5.924 % ID/g. For the same compound, the “radioactive distribution per unit weight, Spleen, Average” value ([5]; 60 min. after administration) was 0.154 % ID/g, the “radioactive distribution per unit weight, Stomach, Average” value ([5]; 60 min. after administration) was 1.476 % ID/g and the “radioactive distribution per unit weight, Adrenal gland, Average” value ([5]; 180 min. after administration) was 0.754 % ID/g. The “radioactive distribution per unit weight, Blood, Average” value ([5]; 180 min. after administration) was 0.139 % ID/g, the “radioactive distribution per unit weight, Bone, Average” value ([5]; 180 min. after administration) was 0.070 % ID/g and the “radioactive distribution per unit weight, Brain, Average” value ([5]; 180 min. after administration) was 0.027 % ID/g. The “radioactive distribution per unit weight, Heart, Average” value ([5]; 180 min. after administration) was 0.061 % ID/g, the “radioactive distribution per unit weight, Kidney, Average” value ([5]; 180 min. after administration) was 0.643 % ID/g and the “radioactive distribution per unit weight, Large intestine, Average” value ([5]; 180 min. after administration) was 3.294 % ID/g. The “radioactive distribution per unit weight, Liver, Average” value ([5]; 180 min. after administration) was 0.374 % ID/g, the “radioactive distribution per unit weight, Lung, Average” value ([5]; 180 min. after administration) was 0.163 % ID/g and the “radioactive distribution per unit weight, Marrow, Average” value ([5]; 180 min. after administration) was 0.000 % ID/g. The “radioactive distribution per unit weight, Muscle, Average” value ([5]; 180 min. after administration) was 0.027 % ID/g, the “radioactive distribution per unit weight, Pancreas, Average” value ([5]; 180 min. after administration) was 0.088 % ID/g and the “radioactive distribution per unit weight, Small intestine, Average” value ([5]; 180 min. after administration) was 2.870 % ID/g. The “radioactive distribution per unit weight, Spleen, Average” value ([5]; 180 min. after administration) was 0.084 % ID/g, the “radioactive distribution per unit weight, Stomach, Average” value ([5]; 180 min. after administration) was 1.272 % ID/g and the “Radioactive accumulation per unit weight in brain” value ([1]; after 2 min.) was 1.26 % ID/g. For the same compound, the “Radioactive accumulation per unit weight in brain” value ([1]; after 5 min.) was 0.89 % ID/g, the “Radioactive accumulation per unit weight in brain” value ([1]; after 30 min.) was 0.19 % ID/g and the “Radioactive accumulation per unit weight in brain” value ([1]; after 60 min.) was 0.09 % ID/g. The logPoctanol value [2] was 2.3.

For `COc1ccc(-c2cn3cc([123I])ccc3n2)cc1` [[^123I]-6-iodo-2-(4′-methoxyphenyl)imidazo[1,2-a]pyridine], the “accumulation of radioactivity in amygdaloid nucleus on the side to which the physiological saline solution was injected” value [3] was “no significant accumulation of radioactivity”, the “accumulation of radioactivity in amygdaloid nucleus on the side to which the amyloid suspension was injected” value [4] was “marked accumulation of radioactivity” and the “Radioactive accumulation per unit weight in brain” value ([1]; after 2 min.) was 1.04 % ID/g. For the same compound, the “Radioactive accumulation per unit weight in brain” value ([1]; after 5 min.) was 0.72 % ID/g, the “Radioactive accumulation per unit weight in brain” value ([1]; after 30 min.) was 0.12 % ID/g and the “Radioactive accumulation per unit weight in brain” value ([1]; after 60 min.) was 0.04 % ID/g. For the same compound, the logPoctanol value [2] was 1.7.
